Test results published in patent publication US8546443B2, “Benzylic oxindole pyrimidines” (Boehringer Ingelheim International GmbH, priority 2010, dated 2013).

Target: T1, cytoplasmic kinase domain of human IGF-1R (IGF-1R-GST) (Homo sapiens, UniProt P08069)
T1 construct: cytoplasmic kinase domain of human IGF-1R (amino acids 964-1370); GST (glutathione-S-transferase); made in house; host or cells: High Five insect cells (Invitrogen)
Experiment: Insulin-like growth factor-1 receptor (IGF-1R) kinase assay (DELFIA)
Assay type: biochemical
Conditions: IGF-1R-GST kinase activity, read-out: IGF1R IC50
Description: Insulin-Like Growth Factor-1 Receptor (IGF-1R)-Kinase Assay
The kinase activity is measured by DELFIA® assay (dissociation-enhanced lanthanide fluorescence immunoassay, Perkin Elmer). […] Enzyme activity is measured in the presence of substances and a control substance. Poly-glutamate-tyrosine peptide (pEY, Sigma Aldrich) and biotinylated pEY (bio-pEY) are used as reaction substrates.
After 40 min at RT the reactions are stopped with 50 μL of stop solution (250 mM EDTA, 20 mM HEPES pH 7.4). 90 μL from each reaction are transferred onto streptavidin-coated 96-well plates. After 120 min incubation at RT the plates are washed three times with 200 μL phosphate-buffered saline (PBS) per well. The plates are incubated for 60 min with 100 μL of europium-coupled antibody against phospho-tyrosine (diluted 1/2000 in Perkin Elmer DELFIA assay buffer) per well. The plates are washed three times with 200 μL per well of DELFIA washing buffer. 100 μL DELFIA Enhancement Solution (Perkin Elmer) is added to each well, and the plates are incubated for 10 min. The fluorescence signal is measured with a Wallac Victor TRF Reader. IC50 values for the inhibition of the IGF-1R-kinase activity are calculated using the programmes Fifty (Version 2) and GraphPad (Version 3.0).

T1 sequence (P08069 964-1367 limits assumed): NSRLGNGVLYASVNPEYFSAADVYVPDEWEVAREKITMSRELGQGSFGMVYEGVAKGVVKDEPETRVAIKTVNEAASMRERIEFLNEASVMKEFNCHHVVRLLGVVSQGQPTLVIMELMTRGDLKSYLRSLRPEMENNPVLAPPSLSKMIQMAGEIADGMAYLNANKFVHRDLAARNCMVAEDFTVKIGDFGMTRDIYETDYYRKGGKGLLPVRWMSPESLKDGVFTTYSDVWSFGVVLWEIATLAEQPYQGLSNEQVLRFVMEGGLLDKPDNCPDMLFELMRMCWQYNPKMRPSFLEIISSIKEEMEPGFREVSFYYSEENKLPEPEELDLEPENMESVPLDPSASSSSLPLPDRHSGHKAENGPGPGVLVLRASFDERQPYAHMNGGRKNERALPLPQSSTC

Structure (SMILES) | IC50 [nM]
Cc1cc(C2CCCNC2)ccc1Nc1ncc(Br)c(NCc2cccc3c2C(C)(C)C(=O)N3)n1 (racemic) [Example I-7] | 0.69
CC(=O)N1CCC(n2cc(Nc3ncc(Cl)c(NCc4cccc5c4C(C)(C)C(=O)N5)n3)cn2)CC1 [Example I-2] | 21
COc1cc(N2CCNCC2)ccc1Nc1ncc(Cl)c(NCc2cccc3c2C(C)(C)C(=O)N3)n1 [Example I-11] | 2
COc1cc(N2CCC(N3CCN(S(C)(=O)=O)CC3)CC2)ccc1Nc1ncc(C(F)(F)F)c(NCc2cccc3c2C(C)(C)C(=O)N3)n1 [Example I-25] | 7
COc1cc(N2CCC(N3CCN(S(C)(=O)=O)CC3)CC2)ccc1Nc1ncc(C(F)(F)F)c(NCc2cccc3c2CC(=O)N3)n1 [Example I-26] | 9
CCOc1cc(N2CCNCC2)ccc1Nc1ncc(C(F)(F)F)c(NCc2cccc3c2C(C)(C)C(=O)N3)n1 [Example I-33] | 0.6
CN(C)CC(=O)N1CCC(c2ccc(Nc3ncc(Cl)c(NCc4cccc5c4C(C)(C)C(=O)N5)n3)cc2)CC1 [Example I-43] | 7
CC(C)(C)OC(=O)NCC(=O)N1CCC(c2ccc(Nc3ncc(Cl)c(NCc4cccc5c4C(C)(C)C(=O)N5)n3)cc2)CC1 [Example I-45] | 23
CN(CC(=O)N1CCC(c2ccc(Nc3ncc(Cl)c(NCc4cccc5c4C(C)(C)C(=O)N5)n3)cc2)CC1)C(=O)OC(C)(C)C [Example I-46] | 29
CC(C)(C)OC(=O)N1CC(C(=O)N2CCC(c3ccc(Nc4ncc(Cl)c(NCc5cccc6c5C(C)(C)C(=O)N6)n4)cc3)CC2)C1 [Example I-47] | 38
CC1(C)C(=O)Nc2cccc(CNc3nc(Nc4ccc(C5CCN(C(=O)[C@@H]6CCCN6)CC5)cc4)ncc3Cl)c21 [Example I-49] | 5
COc1cc(C2CCN(C(=O)CN(C)C)CC2)ccc1Nc1ncc(Cl)c(NCc2cccc3c2C(C)(C)C(=O)N3)n1 [Example I-58] | 1
COc1cc(N2CCN(C(=O)CCN3CCCC3)CC2)ccc1Nc1ncc(Cl)c(NCc2cccc3c2C(C)(C)C(=O)N3)n1 [Example I-59] | 4
COc1cc(N2CCN(C(=O)CN(C)C)CC2)ccc1Nc1ncc(Cl)c(NCc2cccc3c2C(C)(C)C(=O)N3)n1 [Example I-62] | 1
COc1cc(N2CCN(C(=O)C3CCCN(C)C3)CC2)ccc1Nc1ncc(Cl)c(NCc2cccc3c2C(C)(C)C(=O)N3)n1 (stereo not shown) [Example I-63] | 2
COc1cc(N2CCN(C(C)=O)CC2)ccc1Nc1ncc(C(F)(F)F)c(NCc2cccc3c2CC(=O)N3)n1 [Example I-70] | 21
COc1cc(N2CCN(C(=O)N(C)C)CC2)ccc1Nc1ncc(C(F)(F)F)c(NCc2cccc3c2CC(=O)N3)n1 [Example I-71] | 50
CCOC(=O)N1CCN(c2ccc(Nc3ncc(C(F)(F)F)c(NCc4cccc5c4CC(=O)N5)n3)c(OC)c2)CC1 [Example I-72] | 72

Structure (SMILES) | IC50 [nM]
COC(=O)N1CCN(c2ccc(Nc3ncc(C(F)(F)F)c(NCc4cccc5c4C(C)(C)C(=O)N5)n3)c(OC)c2)C[C@H]1C [Example I-73] | 29
CN(C)CC(=O)N1CCC(c2ccc(Nc3ncc(C(F)(F)F)c(NCc4cccc5c4C(C)(C)C(=O)N5)n3)cc2)CC1 [Example I-75] | 2
COc1cc(N2CCN(C(=O)N(C)C)CC2)ccc1Nc1ncc(C(F)(F)F)c(NCc2cccc3c2C(C)(C)C(=O)N3)n1 [Example I-76] | 11
COc1cc(N2CCN(C(C)=O)CC2)ccc1Nc1ncc(C(F)(F)F)c(NCc2cccc3c2C(C)(C)C(=O)N3)n1 [Example I-77] | 3
COc1cc(N2CC3CC2CN3C(C)=O)ccc1Nc1ncc(C(F)(F)F)c(NCc2cccc3c2C(C)(C)C(=O)N3)n1 (stereo not shown) [Example I-80] | 47
COc1cc(N2CC3CC2CN3C(=O)N(C)C)ccc1Nc1ncc(C(F)(F)F)c(NCc2cccc3c2C(C)(C)C(=O)N3)n1 (stereo not shown) [Example I-81] | 81
COC(=O)N1CC2CC1CN2c1ccc(Nc2ncc(C(F)(F)F)c(NCc3cccc4c3C(C)(C)C(=O)N4)n2)c(OC)c1 (stereo not shown) [Example I-82] | 65
COCC(=O)N1CCN(c2ccc(Nc3ncc(C(F)(F)F)c(NCc4cccc5c4C(C)(C)C(=O)N5)n3)c(OC)c2)CC1 [Example I-83] | 5
COc1cc(N2CCN(C(=O)CN(C)C)CC2)ccc1Nc1ncc(C(F)(F)F)c(NCc2cccc3c2C(C)(C)C(=O)N3)n1 [Example I-84] | 0.3
COCCC(=O)N1CCN(c2ccc(Nc3ncc(C(F)(F)F)c(NCc4cccc5c4C(C)(C)C(=O)N5)n3)c(OC)c2)CC1 [Example I-85] | 9
COc1cc(N2CCN(C(=O)C3CCN(C)CC3)CC2)ccc1Nc1ncc(C(F)(F)F)c(NCc2cccc3c2C(C)(C)C(=O)N3)n1 [Example I-87] | 3
COc1cc(N2CCN(C(=O)CN3CCN(C)CC3)CC2)ccc1Nc1ncc(C(F)(F)F)c(NCc2cccc3c2C(C)(C)C(=O)N3)n1 [Example I-88] | 9
COc1cc(N2CCN(C(=O)CN(C)C)CC2)ccc1Nc1ncc(C(F)(F)F)c(NCc2cccc3c2CC(=O)N3)n1 [Example I-91] | 6
CN1CCN(c2ccc(Nc3ncc(Cl)c(NCc4cccc5c4C(C)(C)C(=O)N5)n3)cc2)CC1 [Example I-94] | 14
COc1cc(N2CCN(C(C)C)CC2)ccc1Nc1ncc(Cl)c(NCc2cccc3c2C(C)(C)C(=O)N3)n1 [Example I-98] | 2
COc1cc(C2CCN(C)CC2)ccc1Nc1ncc(Cl)c(NCc2cccc3c2C(C)(C)C(=O)N3)n1 [Example I-100] | 2
COc1cc(N2CCN(C3CCOCC3)[C@H](C)C2)ccc1Nc1ncc(C(F)(F)F)c(NCc2cccc3c2C(C)(C)C(=O)N3)n1 [Example I-105] | 2
COc1cc(N2CCN(C(C)C)[C@H](C)C2)ccc1Nc1ncc(C(F)(F)F)c(NCc2cccc3c2C(C)(C)C(=O)N3)n1 [Example I-106] | 0.08

The remaining compounds from weak to strong by IC50, led by results:

IC50 [nM] | Structure (SMILES)
30 | CCOc1cc(N2CCN(C(C)=O)CC2)ccc1Nc1ncc(C(F)(F)F)c(NCc2cccc3c2CC(=O)N3)n1 [Example I-78]
28 | CN1CCN(c2ccc(Nc3ncc(Br)c(NCc4cccc5c4CC(=O)N5)n3)cc2)CC1 [Example I-8]
25 | CC(C)(C)OC(=O)N1CCC[C@H]1C(=O)N1CCC(c2ccc(Nc3ncc(Cl)c(NCc4cccc5c4C(C)(C)C(=O)N5)n3)cc2)CC1 [Example I-44]
16 | COc1cc(N2CCN(C3CCOCC3)CC2)ccc1Nc1ncc(Cl)c(NCc2cccc3c2C(C)(C)C(=O)N3)n1 [Example I-95]
9 | COc1cc(N2CCN(C(=O)CCCN(C)C)CC2)ccc1Nc1ncc(C(F)(F)F)c(NCc2cccc3c2CC(=O)N3)n1 [Example I-92]
7 | CC1(C)C(=O)Nc2cccc(CNc3nc(Nc4ccc(C5CCN(C(=O)C6CNC6)CC5)cc4)ncc3Cl)c21 [Example I-52]
5 | CC1(C)C(=O)Nc2cccc(CNc3nc(Nc4ccc(C5CCN(C6COC6)CC5)cc4)ncc3Cl)c21 [Example I-93]
4 | CCOc1cc(N2CCN(C(C)=O)CC2)ccc1Nc1ncc(C(F)(F)F)c(NCc2cccc3c2C(C)(C)C(=O)N3)n1 [Example I-79]
3 | COc1cc(N2CCNCC2)ccc1Nc1ncc(C(F)(F)F)c(NCc2cccc3c2C(C)(C)C(=O)N3C)n1 [Example I-30]
3 | CC1(C)C(=O)Nc2cccc(CNc3nc(Nc4ccc(C5CCN(C(=O)CN)CC5)cc4)ncc3Cl)c21 [Example I-50]
3 | COc1cc(N2CCN(C(=O)C3CCN(C)CC3)CC2)ccc1Nc1ncc(Cl)c(NCc2cccc3c2C(C)(C)C(=O)N3)n1 [Example I-60]
3 | COc1cc(N2CCN(C(=O)CN3CCN(C)CC3)CC2)ccc1Nc1ncc(Cl)c(NCc2cccc3c2C(C)(C)C(=O)N3)n1 [Example I-61]
3 | COc1cc(N2CCN(C3CCC3)CC2)ccc1Nc1ncc(Cl)c(NCc2cccc3c2C(C)(C)C(=O)N3)n1 [Example I-96]
2 | CNCC(=O)N1CCC(c2ccc(Nc3ncc(Cl)c(NCc4cccc5c4C(C)(C)C(=O)N5)n3)cc2)CC1 [Example I-51]
2 | COc1cc(N2CCN(C(=O)CCCN(C)C)CC2)ccc1Nc1ncc(Cl)c(NCc2cccc3c2C(C)(C)C(=O)N3)n1 [Example I-64]
2 | CN(C)CCCC(=O)N1CCC(c2ccc(Nc3ncc(C(F)(F)F)c(NCc4cccc5c4C(C)(C)C(=O)N5)n3)cc2)CC1 [Example I-74]
2 | CCN1CCN(c2ccc(Nc3ncc(Cl)c(NCc4cccc5c4C(C)(C)C(=O)N5)n3)c(OC)c2)CC1 [Example I-99]
2 | COc1cc(N2CCN(CC3CC3)CC2)ccc1Nc1ncc(Cl)c(NCc2cccc3c2C(C)(C)C(=O)N3)n1 [Example I-101]
1 | COc1cc(N2CCN(C(=O)CCCN(C)C)CC2)ccc1Nc1ncc(C(F)(F)F)c(NCc2cccc3c2C(C)(C)C(=O)N3)n1 [Example I-86]
0.79 | CN(C)CC(=O)N1CCC(c2ccc(Nc3ncc(Br)c(NCc4cccc5c4C(C)(C)C(=O)N5)n3)cc2)CC1 [Example I-42]
0.32 | COc1cc(N2CCN(C(=O)C3CCCN(C)C3)CC2)ccc1Nc1ncc(C(F)(F)F)c(NCc2cccc3c2C(C)(C)C(=O)N3)n1 (stereo not shown) [Example I-90]
0.18 | COc1cc(N2CCN(C(=O)CCN(C)C)CC2)ccc1Nc1ncc(C(F)(F)F)c(NCc2cccc3c2C(C)(C)C(=O)N3)n1 [Example I-89]
